# Measured values published in patent publication US20210360915A1, “CRYOPRESERVING COMPOSITIONS” (UNIVERSITY OF WARWICK, priority 2018, published 2021).
# Key:
# [1] = tested on: B. subtilis; experiment: B. subtilis colony recovery after 7 freeze/thaw cycles; assay type: cell-based, Bacillus subtilis
# Source text: (§1) Bacillus subtilis was chosen as a Gram positive strain and Mycobacterium smegmatis as a Mycobacteria (distinct cell wall compared to other Gram positives) for further analysis. Using the same conditions as for E. coli, the cells were exposed to 7 freeze/thaw cycles and recovered colonies counted, Table 1 and FIG. 4. To enable comparison of the data and to account for the different growth rates of each bacterial strain, the recovered colonies were also normalised to the highest recovery.
# [2] = tested on: E. coli
# Description: Each component (at the useful cryopreservation concentration) was incubated with E. coli overnight at 4° C. and subsequently the number of colony forming units determined, FIG. 2B.
# [3] = tested on: E. coli; experiment: E. coli colony recovery after 7 freeze/thaw cycles; assay type: cell-based, Escherichia coli; set-up: Mean colonies recovered, E. coli, Total: dose or concentration left out as unconfirmed
# Description: E. coli was added to different cryoprotective formulations and then exposed to 7 freeze/thaw cycles from liquid nitrogen (−196° C.) to room temperature (20° C.) and the number of colony forming units determined by growth on agar plates for 16 hours was recorded (see FIG. 2A). This was chosen to mimic laboratory conditions where stocks are often frozen and thawed during use.
# In some down-stream applications, […].
# as §1
# [4] = tested on: E. coli; experiment: Post-thaw growth profile of E. coli by OD600; assay type: cell-based, Escherichia coli; details: 7 freeze/thaw cycles in liquid nitrogen, then inoculated into LB media
# Source text: This macromolecular cryoprotection solution using ice-inhibiting polymers is clearly suitable for bacteria storage but there are many parameters which can be varied in this system including the molecular weight of the polymers. To enable a large number of conditions to be screened, the post-thaw growth rate of E. coli was also followed by OD600 (turbidity) measurements, which enable higher-throughput measurements. E. coli were frozen with the indicated formulations, and post-thaw inoculated into LB media and their growth monitored.
# The improvement was most significant in the case of larger PEGs.
# [5] = tested on: M. smegmatis; experiment: M. smegmatis colony recovery after 7 freeze/thaw cycles; assay type: cell-based, Mycobacterium smegmatis
# Source text: as §1
# [6] = tested on: β-galactosidase (β-Gal); experiment: β-Gal activity recovery after frozen storage (ONPG assay); assay type: biochemical, bacterial; details: frozen at −20° C. for 3 days, thawed at 20° C.; PEG, PVP, Trehalose, HES 100 mg·mL^−1, PVA 1 mg·mL^−1
# Description: Samples were made in triplicate at the appropriate concentrations and frozen in 1.5 mL tubes by directly placing in a freezer either at −20° C. or −80° C. The samples were then held at this temperature for the indicated time period and then thawed at 20° C.
# Absorbance was measured at 420 nm. All other methods are in the supporting information.
# Absorbance was measured at 420 nm.
# Activity was tested after thawing at 20° C. (FIG. 6B).
# [7] = molecular target: β-Gal (Escherichia coli, UniProt P00722); details: 1 hour incubation without freeze/thaw
# Chain of β-Gal (P00722 2-1024): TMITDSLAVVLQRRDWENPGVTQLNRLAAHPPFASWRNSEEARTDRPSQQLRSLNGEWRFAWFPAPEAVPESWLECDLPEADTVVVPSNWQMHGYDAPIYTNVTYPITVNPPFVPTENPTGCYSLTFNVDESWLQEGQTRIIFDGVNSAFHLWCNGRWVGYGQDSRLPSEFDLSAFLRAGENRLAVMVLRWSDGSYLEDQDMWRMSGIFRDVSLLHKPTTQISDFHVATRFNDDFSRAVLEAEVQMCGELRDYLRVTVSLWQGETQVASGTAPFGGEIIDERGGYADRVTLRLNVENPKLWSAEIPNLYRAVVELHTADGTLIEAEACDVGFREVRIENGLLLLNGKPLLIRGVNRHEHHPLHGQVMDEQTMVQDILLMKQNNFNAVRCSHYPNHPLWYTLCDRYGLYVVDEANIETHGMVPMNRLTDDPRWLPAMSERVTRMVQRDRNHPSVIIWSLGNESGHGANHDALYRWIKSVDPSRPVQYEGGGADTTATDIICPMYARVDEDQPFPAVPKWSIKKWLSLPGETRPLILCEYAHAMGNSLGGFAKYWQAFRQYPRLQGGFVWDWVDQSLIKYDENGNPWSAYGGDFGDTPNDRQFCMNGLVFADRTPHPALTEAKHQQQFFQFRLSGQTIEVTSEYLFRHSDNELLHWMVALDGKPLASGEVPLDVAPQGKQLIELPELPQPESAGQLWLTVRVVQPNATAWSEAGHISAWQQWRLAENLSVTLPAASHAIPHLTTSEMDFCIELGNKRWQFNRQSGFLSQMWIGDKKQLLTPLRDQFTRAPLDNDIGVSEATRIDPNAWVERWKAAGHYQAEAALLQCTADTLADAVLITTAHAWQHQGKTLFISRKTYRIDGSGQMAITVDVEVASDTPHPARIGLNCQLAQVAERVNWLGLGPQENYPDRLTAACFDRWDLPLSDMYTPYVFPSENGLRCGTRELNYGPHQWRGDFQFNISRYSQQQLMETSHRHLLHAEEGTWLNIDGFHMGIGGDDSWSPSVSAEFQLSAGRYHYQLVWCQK
# Description: β-Gal activity was determined by a colorimetric assay involving the use of ONPG. Briefly aliquots of 30 μL of 4 mg·mL-1 ONPG were added to wells of a 96 well plate containing 50 μL of 20 μg·mL^−1 B-Gal solution. This was then incubated at room temperature for 5 minutes and quenched by addition of 50 μL of 1M Na2CO3 solution. Absorbance was measured at 420 nm.
# Since under standard laboratory conditions, proteins are normally stored at −80° C. through long periods, we decided to test the levels of protein activity after long term ultra-low temperature conditions.
# [8] = concentrations as in table footnote, ± SD
# [9] = normalised to the highest recovery
structure (smiles),measurement,setting,value
"OCC(O)CO [25% Glycerol, glycerol]","Mean colonies recovered, B. subtilis, Total",[1]; [8],93 ± 18.9
same,"Mean colonies recovered, B. subtilis, Normalised",[1]; [9],35%
same,recovered colonies after overnight incubation with cryoprotectant (toxicity),[2],significant reduction in recovered colonies
same,recovered colonies (colony forming units),"[3]; 7 freeze (−196° C.)/thaw (20° C.) cycles, growth on agar plates for 16 hours, PEG/PVA 100 + 1 mg·mL^−1",15
same,"Mean colonies recovered, E. coli, Normalised","[3]; 7 freeze/thaw cycles, normalised to the highest recovery",22%
same,"Mean colonies recovered, E. coli, Total","[3]; 7 freeze/thaw cycles, ± SD",15 ± 2.8
same,post-thaw growth rate (OD600),[4],essentially identical growth rates
same,"Mean colonies recovered, M. smegmatis, Total",[5]; [8],30 ± 6.0
same,"Mean colonies recovered, M. smegmatis, Normalised",[5]; [9],88%
OC[C@H]1O[C@H](O[C@H]2O[C@H](CO)[C@@H](O)[C@H](O)[C@H]2O)[C@H](O)[C@@H](O)[C@@H]1O [trehalose],protection of β-Gal activity,[6],protected β-Gal activity
same,β-Gal function after incubation with cryoprotectant,[7],some negative effects on protein function
